Assays:
[1] = test system: hyaluronic acid; details: ex vivo human skin model; cited from earlier work
[2] = test system: 3T3-L1 adipocytes and J774 macrophages; test: Macrophage clustering on adipocytes; assay type: cell-based; details: for number of macrophages associated with adipocytes: FIG. 5A, ~100 adipocytes/condition
Description: 3T3-L1 adipocytes were untreated or treated with TNF-alpha (˜25 nM) for 24 hours. One set of TNF-alpha treated adipocytes was also treated with hexapeptide-11 (0.1 mg/mL). One set of J774 macrophages was treated with hexapeptide-11 (0.1 mg/mL) for 24 hours. The macrophages were added to the adipocytes. After an 1 hour incubation, the cells were placed on ice and incubated with a fluorescently labeled Cholera toxin B subunit to label the cell surface of macrophages a fluorescent green. The cells were then fixed with 4% formaldehyde for 15 minutes and then incubated with LipidTox to label the lipid droplets within the adipocytes a fluorescent red color. Four conditions were performed: (1) J774 macrophages with untreated adipocytes; (2) J774 macrophages with TNF-alpha treated adipocytes; (3) J774 macrophages with TNF alpha treated adipocytes plus hexapeptide-11 in the 1 hour incubation of both cell types; and (4) peptide pretreated J774 macrophages with hexapeptide-11 pretreated TNF-alpha treated adipocytes incubated together in the presence of hexapeptide-11. Images taken with a 60× objective were analyzed by counting the number of macrophages associated with ˜100 adipocytes for each condition.

[3] = test system: Dermal Fibroblasts; test: Gene expression in fibroblasts by quantitative-PCR; assay type: cell-based; details: 72 hours exposure, vs untreated control
Description: Gene expression in fibroblasts were measured following 72 hours of exposure to hexapeptide-11.
Dermal Fibroblasts were plated in cell culture media and allowed to grow to approximately 85-90% confluency following manufacturer's guidelines. Cells were harvested and plated at 10,000 cells per cm^2 in 6-well dishes cultured for 3 days. On the third day, confluency was estimated by microscopy and the cell culture media was replaced. The cells were treated with hexpapeptide-11 at a 100× concentration or control buffer without peptide. The time at initial exposure to the peptide is considered time, t=0. Treated and untreated control cells were harvested, counted and extracted for RNA at 24 hours, 48 hours, and 72 hours following t=0. Cell pellets and isolated RNA were stored at −80° C. until analysis by quantitative-PCR.
The 72-hour time point RNA samples (treated and untreated) were used for gene expression analysis. RNA was converted to first strand cDNA and analyzed by quantitative-PCR.

| Molecule | stimulation of dermal hyaluronic acid level versus placebo [1] [%] | stimulation of epidermal hyaluronic acid level versus placebo [1] [%] | macrophage clustering ([2]; 0.1 mg/mL, TNF-alpha treated adipocytes) | number of macrophages associated with adipocytes [2] | adipocyte droplet breakdown ([2]; TNF-alpha and peptide treatments, FIG. 4 right panel) | Fold Change AMBRA1 [3] [fold] | Fold Change ATG4A [3] [fold] | Fold Change ATG5 [3] [fold] | Fold Change CASP3 [3] [fold] | Fold Change COL5A2 [3] [fold] | Fold Change IGF1 [3] [fold] | Fold Change MAPK14 [3] [fold] | Fold Change PDGFRA [3] [fold] | Fold Change PSMB5 [3] [fold] | Fold Change SOD3 [3] [fold] | Fold Change TNF [3] [fold] |
| --- | --- | --- | --- | --- | --- | --- | --- | --- | --- | --- | --- | --- | --- | --- | --- | --- |
| CCCCCCCC(=O)CCc1ccc(O)c(OC)c1 [hydroxymethoxyphenyl decanone] | 259 | 198 | – | – | – | – | – | – | – | – | – | – | – | – | – | – |
| Phe-Val-Ala-Pro-Phe-Pro (FVAPFP) [hexapeptide-11] | – | – | increase macrophage clustering | increased | further adipocyte droplet breakdown | 3.59 | 3.29 | 2.00 | 2.24 | −65.65 | −901.80 | −83.67 | −369.65 | 2.56 | −101.59 | −92.41 |
| TNF-alpha [reference compound] | – | – | – | greatly increased | – | – | – | – | – | – | – | – | – | – | – | – |
